In PubChem BioAssay AID2060615 (Molecular Pharmacology Branch, DTP, NCI, 2025):
One block for each compound: values may come before it.

System: 496974-208-R-J2-PDC complex spheroids, growth % test/control
Assay: Anticancer human tumor 496974-208-R-J2-PDC patient-derived pancreatic carcinoma cell line growth inhibition [CLK]
Settings: for IC50: curve of first compound; for viability, T/C: stronger effect = lower value
Summary of the method: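 Patient-derived tumor cells grown as complex spheroids with HUVEC endothelial cells and mesenchymal stem cells, treated with drug combinations. Concentrations descend in half-log steps from near clinical Cmax, or from 10 microM if Cmax unknown.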

[1] = second compound 0.0316 µM, first compound 0.0316 µM
[2] = second compound 0.0316 µM, first compound 0.1 µM
[3] = second compound 0.0316 µM, first compound 0.316 µM
[4] = second compound 0.0316 µM, first compound 1 µM
[5] = second compound 0.0316 µM, first compound 3.16 µM
[6] = second compound 0.0316 µM, first compound 10 µM
[7] = second compound 0.1 µM, first compound 0.0316 µM
[8] = second compound 0.1 µM, first compound 0.1 µM
[9] = second compound 0.1 µM, first compound 0.316 µM
[10] = second compound 0.1 µM, first compound 1 µM
[11] = second compound 0.1 µM, first compound 3.16 µM
[12] = second compound 0.1 µM, first compound 10 µM
[13] = second compound 0.316 µM, first compound 0.0316 µM
[14] = second compound 0.316 µM, first compound 0.1 µM
[15] = second compound 0.316 µM, first compound 0.316 µM
[16] = second compound 0.316 µM, first compound 1 µM
[17] = second compound 0.316 µM, first compound 3.16 µM
[18] = second compound 0.316 µM, first compound 10 µM
[19] = second compound 1 µM, first compound 0.0316 µM
[20] = second compound 1 µM, first compound 0.1 µM
[21] = second compound 1 µM, first compound 0.316 µM
[22] = second compound 1 µM, first compound 1 µM
[23] = second compound 1 µM, first compound 3.16 µM
[24] = second compound 1 µM, first compound 10 µM
[25] = second compound 3.16 µM, first compound 0.0316 µM
[26] = second compound 3.16 µM, first compound 0.1 µM
[27] = second compound 3.16 µM, first compound 0.316 µM
[28] = second compound 3.16 µM, first compound 1 µM
[29] = second compound 3.16 µM, first compound 3.16 µM
[30] = second compound 3.16 µM, first compound 10 µM
[31] = second compound 10 µM, first compound 0.0316 µM
[32] = second compound 10 µM, first compound 0.1 µM
[33] = second compound 10 µM, first compound 0.316 µM
[34] = second compound 10 µM, first compound 1 µM
[35] = second compound 10 µM, first compound 3.16 µM
[36] = second compound 10 µM, first compound 10 µM
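Also: spheroids exposed to the drugs for 7 days before readout.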
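For viability, T/C in this document: 100% = DMSO vehicle control wells.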

Structure (SMILES): C=CC(=O)N1CCN(c2nc(=O)n(-c3c(C)ccnc3C(C)C)c3nc(-c4c(O)cccc4F)c(F)cc23)C(C)C1 (stereo not given) + CNC(=O)c1ccc(Nc2nc(OC3CCCC3)c3c(-c4ccc5nc(C)oc5c4)c[nH]c3n2)c(OC)c1
IC50 (second compound 0.0316 µM): > 10000 nM
IC50 (second compound 0.1 µM): > 10000 nM
IC50 (second compound 0.316 µM): > 10000 nM
IC50 (second compound 1 µM): > 10000 nM
IC50 (second compound 3.16 µM): 7280 nM
IC50 (second compound 10 µM): 4700 nM
viability, T/C [1]: 106%
viability, T/C [2]: 95.9%
viability, T/C [3]: 93.6%
viability, T/C [4]: 107%
viability, T/C [5]: 102%
viability, T/C [6]: 85.7%
viability, T/C [7]: 71.5%
viability, T/C [8]: 67.4%
viability, T/C [9]: 78.5%
viability, T/C [10]: 77.1%
viability, T/C [11]: 73%
viability, T/C [12]: 64.8%
viability, T/C [13]: 78.8%
viability, T/C [14]: 76.5%
viability, T/C [15]: 71%
viability, T/C [16]: 76.2%
viability, T/C [17]: 71.1%
viability, T/C [18]: 53.3%
viability, T/C [19]: 63.2%
viability, T/C [20]: 62.8%
viability, T/C [21]: 67.7%
viability, T/C [22]: 68.8%
viability, T/C [23]: 66%
viability, T/C [24]: 49%
viability, T/C [25]: 51.6%
viability, T/C [26]: 62.4%
viability, T/C [27]: 52.3%
viability, T/C [28]: 58.5%
viability, T/C [29]: 55%
viability, T/C [30]: 42.7%
viability, T/C [31]: 62%
viability, T/C [32]: 51.5%
viability, T/C [33]: 51.6%
viability, T/C [34]: 54.3%
viability, T/C [35]: 55.7%
viability, T/C [36]: 41%

Structure (SMILES): CCCS(=O)(=O)Nc1ccc(F)c(C(=O)c2c[nH]c3ncc(-c4ccc(Cl)cc4)cc23)c1F + CNC(=O)c1ccc(Nc2nc(OC3CCCC3)c3c(-c4ccc5nc(C)oc5c4)c[nH]c3n2)c(OC)c1
IC50 (second compound 0.0316 µM): 6390 nM
IC50 (second compound 0.1 µM): 6360 nM
IC50 (second compound 0.316 µM): > 10000 nM
IC50 (second compound 1 µM): 2590 nM
IC50 (second compound 3.16 µM): 68.1 nM
IC50 (second compound 10 µM): < 31.6 nM
viability, T/C [1]: 94.7%
viability, T/C [2]: 73.7%
viability, T/C [3]: 115%
viability, T/C [4]: 100%
viability, T/C [5]: 91%
viability, T/C [6]: 23.6%
viability, T/C [7]: 71.5%
viability, T/C [8]: 47.6%
viability, T/C [9]: 78.6%
viability, T/C [10]: 86%
viability, T/C [11]: 78.2%
viability, T/C [12]: 35.6%
viability, T/C [13]: 70.7%
viability, T/C [14]: 45.4%
viability, T/C [15]: 76.3%
viability, T/C [16]: 71.2%
viability, T/C [17]: 78.2%
viability, T/C [18]: 29.6%
viability, T/C [19]: 51.2%
viability, T/C [20]: 44.1%
viability, T/C [21]: 64.5%
viability, T/C [22]: 69.5%
viability, T/C [23]: 66.2%
viability, T/C [24]: 22.4%
viability, T/C [25]: 52%
viability, T/C [26]: 26%
viability, T/C [27]: 61.9%
viability, T/C [28]: 63.3%
viability, T/C [29]: 53.1%
viability, T/C [30]: 19.8%
viability, T/C [31]: 50.7%
viability, T/C [32]: 30.5%
viability, T/C [33]: 58.6%
viability, T/C [34]: 61.7%
viability, T/C [35]: 64%
viability, T/C [36]: 27.2%

These reach a lower IC50 (second compound 0.0316 µM). Values come first.

IC50 (second compound 0.0316 µM): 204 nM
IC50 (second compound 0.1 µM): 33.5 nM
IC50 (second compound 0.316 µM): < 31.6 nM
IC50 (second compound 1 µM): < 31.6 nM
IC50 (second compound 3.16 µM): < 31.6 nM
IC50 (second compound 10 µM): < 31.6 nM
Structure (SMILES): C#Cc1c(F)ccc2cc(O)cc(-c3ncc4c(N5CC6CCC(C5)N6)nc(OCC56CCCN5CC(F)C6)nc4c3F)c12 (stereo not given) + CNC(=O)c1ccc(Nc2nc(OC3CCCC3)c3c(-c4ccc5nc(C)oc5c4)c[nH]c3n2)c(OC)c1
viability, T/C [1]: 62.4%
viability, T/C [2]: 56.8%
viability, T/C [3]: 46.1%
viability, T/C [4]: 42.2%
viability, T/C [5]: 42.9%
viability, T/C [6]: 41%
viability, T/C [7]: 57.7%
viability, T/C [8]: 46.7%
viability, T/C [9]: 35%
viability, T/C [10]: 37.2%
viability, T/C [11]: 34.6%
viability, T/C [12]: 43.1%
viability, T/C [13]: 45.2%
viability, T/C [14]: 40.2%
viability, T/C [15]: 37.2%
viability, T/C [16]: 33%
viability, T/C [17]: 33.5%
viability, T/C [18]: 31%
viability, T/C [19]: 37.8%
viability, T/C [20]: 32.5%
viability, T/C [21]: 31.2%
viability, T/C [22]: 28.1%
viability, T/C [23]: 31.3%
viability, T/C [24]: 28.4%
viability, T/C [25]: 33.5%
viability, T/C [26]: 30.4%
viability, T/C [27]: 27.2%
viability, T/C [28]: 25.8%
viability, T/C [29]: 27.6%
viability, T/C [30]: 23.8%
viability, T/C [31]: 30.1%
viability, T/C [32]: 27.9%
viability, T/C [33]: 27%
viability, T/C [34]: 22.8%
viability, T/C [35]: 23.5%
viability, T/C [36]: 21.2%

IC50 (second compound 0.0316 µM): 5460 nM
IC50 (second compound 0.1 µM): 4520 nM
IC50 (second compound 0.316 µM): 4150 nM
IC50 (second compound 1 µM): 2740 nM
IC50 (second compound 3.16 µM): 2320 nM
IC50 (second compound 10 µM): 549 nM
Structure (SMILES): C=C(F)C(=O)N1CCN(c2nc(OCC3CCCN3C)nc3c2CCN(c2cccc4cccc(Cl)c24)C3)CC1CC#N (stereo not given) + CNC(=O)c1ccc(Nc2nc(OC3CCCC3)c3c(-c4ccc5nc(C)oc5c4)c[nH]c3n2)c(OC)c1
viability, T/C [1]: 89%
viability, T/C [2]: 91.7%
viability, T/C [3]: 90.5%
viability, T/C [4]: 90.6%
viability, T/C [5]: 91.4%
viability, T/C [6]: 4.85%
viability, T/C [7]: 79.2%
viability, T/C [8]: 73.6%
viability, T/C [9]: 72.9%
viability, T/C [10]: 76.1%
viability, T/C [11]: 71.7%
viability, T/C [12]: 1.82%
viability, T/C [13]: 80.4%
viability, T/C [14]: 72.9%
viability, T/C [15]: 73.5%
viability, T/C [16]: 76.2%
viability, T/C [17]: 63.8%
viability, T/C [18]: 5.04%
viability, T/C [19]: 69.5%
viability, T/C [20]: 68.5%
viability, T/C [21]: 64.7%
viability, T/C [22]: 64.8%
viability, T/C [23]: 47.9%
viability, T/C [24]: 0.69%
viability, T/C [25]: 59.8%
viability, T/C [26]: 59.4%
viability, T/C [27]: 55.8%
viability, T/C [28]: 56.9%
viability, T/C [29]: 47.5%
viability, T/C [30]: 1.05%
viability, T/C [31]: 56.4%
viability, T/C [32]: 52.2%
viability, T/C [33]: 48.4%
viability, T/C [34]: 45.4%
viability, T/C [35]: 39.8%
viability, T/C [36]: 1.59%

IC50 (second compound 0.0316 µM): 5110 nM
IC50 (second compound 0.1 µM): 3490 nM
IC50 (second compound 0.316 µM): 190 nM
IC50 (second compound 1 µM): 52.1 nM
IC50 (second compound 3.16 µM): 40.4 nM
IC50 (second compound 10 µM): 40.9 nM
Structure (SMILES): COC1C=CCC(C)C(C)S(=O)(=O)NC(=O)c2ccc3c(c2)N(CC2CCC21)CC1(CCCc2cc(Cl)ccc21)CO3 (stereo not given) + CNC(=O)c1ccc(Nc2nc(OC3CCCC3)c3c(-c4ccc5nc(C)oc5c4)c[nH]c3n2)c(OC)c1
viability, T/C [1]: 103%
viability, T/C [2]: 60.8%
viability, T/C [3]: 87.7%
viability, T/C [4]: 71.9%
viability, T/C [5]: 70%
viability, T/C [6]: 26.3%
viability, T/C [7]: 76.7%
viability, T/C [8]: 55.6%
viability, T/C [9]: 69.1%
viability, T/C [10]: 60.2%
viability, T/C [11]: 53.1%
viability, T/C [12]: 29.7%
viability, T/C [13]: 50.7%
viability, T/C [14]: 57.1%
viability, T/C [15]: 46.9%
viability, T/C [16]: 41.3%
viability, T/C [17]: 38.1%
viability, T/C [18]: 49.9%
viability, T/C [19]: 59.7%
viability, T/C [20]: 36.7%
viability, T/C [21]: 39.8%
viability, T/C [22]: 34.4%
viability, T/C [23]: 38%
viability, T/C [24]: 30.6%
viability, T/C [25]: 53.5%
viability, T/C [26]: 36.3%
viability, T/C [27]: 35%
viability, T/C [28]: 33%
viability, T/C [29]: 33.3%
viability, T/C [30]: 29.7%
viability, T/C [31]: 53.9%
viability, T/C [32]: 36.8%
viability, T/C [33]: 34.2%
viability, T/C [34]: 31.6%
viability, T/C [35]: 30.1%
viability, T/C [36]: 24.1%
